Data from patent publication US9133183B2, “Imidazolidinones and analogs exhibiting anti-cancer and anti-proliferative activities” (Deciphera Pharmaceuticals, LLC, priority 2013, dated 2015).
pIC50: −log10 of the molar value. Like-named read-outs stand apart in the source and are kept apart here.

Experiments:
osteoclast precursors = test: Osteoclast tartrate-resistant acid phosphatase assay; type: cell-based; conditions: Osteoclast, 7-14 days, RANKL and M-CSF
Description: Osteoclast Tartrate-Resistant Acid Phosphatase Assay
A serial dilution of test compound was dispensed into a 384-well black clear bottom plate (Nalge Nunc International, Rochester, N.Y.). Compound was diluted by the addition of DMEM media supplemented with 10% characterized fetal bovine serum (Invitrogen, Carlsbad, Calif.). Diluted compound was transferred to a 384-well black clear bottom plate. Two-thousand five hundred osteoclast precursors (Lonza, Walkersville, Md.) were added per well in growth media containing Receptor Activator of Nuclear Factor Kappa-beta ligand (RANKL) and M-CSF (R&D Systems, Minneapolis, Minn.). Plates were incubated for 7-14 days at 37 degrees Celsius, 5% CO2, and 95% humidity to allow differentiation of osteoclast precursors. At the end of the incubation period, 10 μL of supernatant from each well was transferred to a clear 384-well plate. Tartrate-resistant acid phosphatase activity in the supernatant samples was determined using an acid phosphatase assay kit (Sigma, St. Louis, Mo.). Absorbance was measured at 550 nm using a plate reader. Data was analyzed using Prism software (Graphpad, San Diego, Calif.) to calculate IC50 values.

M-NFS-60 cells = test: M-NFS-60 cell proliferation assay (resazurin); type: cell-based; conditions: 67 h incubation
Description: M-NFS-60 cells (catalog #CRL-1838) were obtained from the American Type Culture Collection (ATCC, Manassas, Va.). Briefly, cells were grown in suspension in RPMI 1640 medium supplemented with 10% characterized fetal bovine serum (Invitrogen, Carlsbad, Calif.), 0.05 mM 2-mercaptoethanol, and 20 ng/mL mouse recombinant macrophage colony stimulating factor (M-CSF) at 37° C., 5% CO2, and 95% humidity. Cells were allowed to expand until reaching saturation at which point they were subcultured or harvested for assay use.
M-NFS-60 Cell Proliferation Assay
A serial dilution of test compound was dispensed into a 384-well black clear bottom plate (Corning, Corning, N.Y.). Two thousand five hundred cells were added per well in 50 μL complete growth medium. Plates were incubated for 67 h at 37° C., 5% CO2, and 95% humidity. At the end of the incubation period 10 μL of a 440 μM solution of resazurin (Sigma, St. Louis, Mo.) in PBS was added to each well and incubated for an additional 5 h at 37° C., 5% CO2, and 95% humidity. Plates were read on a Synergy2 reader (Biotek, Winooski, Vt.) using an excitation of 540 nm and an emission of 600 nm. IC50 values were calculated from a series of percent inhibition values determined at a range of inhibitor concentrations using software routines as implemented in the GraphPad Prism software package.

[1] = target: unphosphorylated c-KIT kinase (uKIT, Seq. ID no. 2) (Homo sapiens (Human), UniProt P10721); test: uKit kinase assay (coupled pyruvate kinase/lactate dehydrogenase); type: biochemical; conditions: enzymatic assay, ATP 2000 μM
Description: uKit Kinase (Seq. ID No. 2) Assay
Activity of unphosphorylated c-KIT kinase (uKIT, Seq. ID no. 2) was determined by following the production of ADP from the KIT kinase reaction with ATP and poly E4Y as substrates through coupling with the pyruvate kinase/lactate dehydrogenase system (e.g., Schindler et al. Science (2000) 289: 1938-1942). In this assay, the oxidation of NADH (thus the decrease at A340 nm) was continuously monitored spectrophometrically. The reaction mixture (100 μl) contained unphosphorylated KIT (12 nM), polyE4Y (1 mg/mL), MgCl2 (10 mM), pyruvate kinase (4 units), lactate dehydrogenase (0.7 units), phosphoenol pyruvate (1 mM), and NADH (0.28 mM) and ATP (2000 μM) in 90 mM Tris buffer containing 0.2% octyl-glucoside and 1% DMSO, pH 7.5. The inhibition reaction was started by mixing serial diluted test compound with the above reaction mixture. The absorption at 340 nm was monitored continuously for 4 hours at 30° C. on Synergy 2 plate reader (BioTech). Reaction rates around 3 to 4 h time frame were used to calculate % inhibitions, from which IC50 values were generated.
uKit with N-Terminal GST Fusion Used for Screening (Seq ID No. 2)

[2] = target: unphosphorylated c-FMS kinase (uFMS, Seq. ID no. 1) (Homo sapiens (Human), UniProt P07333); test: uFMS kinase assay (ADP production coupled to pyruvate kinase/lactate dehydrogenase); type: biochemical; conditions: enzymatic assay, ATP 500 μM
Description: uFMS kinase (Seq. ID No. 1) Assay
In this assay, the oxidation of NADH (thus the decrease at A340 nm) was continuously monitored spectrophometrically. The reaction mixture (100 μL) contained FMS (purchased from Millipore) (10 nM), polyE4Y (1 mg/mL), MgCl2 (10 mM), pyruvate kinase (4 units), lactate dehydrogenase (0.7 units), phosphoenol pyruvate (1 mM), NADH (0.28 mM) and ATP (500 μM) in 90 mM Tris buffer containing 0.2% octyl-glucoside and 1% DMSO, pH 7.5. The inhibition reaction was started by mixing serial diluted test compound with the above reaction mixture. The absorption at 340 nm was monitored continuously for 4 hours at 30° C. on Synergy 2 plate reader. The reaction rate was calculated using the 3 to 4 h time frame. Percent inhibition was obtained by comparison of reaction rate with that of a control (i.e., in the absence of test compound). IC50 values were calculated from a series of percent inhibition values determined at a range of inhibitor concentrations using software routines as implemented in the GraphPad Prism software package.
uFMS Kinase Sequence (Y538-End) Used for Screening (Seq. ID No. 1)

Sequence of unphosphorylated c-FMS kinase (uFMS, Seq. ID no. 1) (P07333 538-972): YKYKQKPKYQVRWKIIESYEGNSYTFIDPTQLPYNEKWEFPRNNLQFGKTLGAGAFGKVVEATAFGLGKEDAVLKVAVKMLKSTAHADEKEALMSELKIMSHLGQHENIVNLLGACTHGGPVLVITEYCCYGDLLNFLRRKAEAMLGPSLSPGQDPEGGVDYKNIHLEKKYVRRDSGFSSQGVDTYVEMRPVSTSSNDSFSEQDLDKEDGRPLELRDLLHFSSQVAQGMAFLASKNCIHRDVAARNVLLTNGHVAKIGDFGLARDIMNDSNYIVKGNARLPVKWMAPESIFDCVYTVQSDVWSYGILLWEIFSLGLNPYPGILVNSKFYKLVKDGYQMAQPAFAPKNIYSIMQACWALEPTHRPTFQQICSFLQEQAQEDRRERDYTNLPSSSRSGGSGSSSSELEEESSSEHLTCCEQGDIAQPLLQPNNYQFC
Sequence of unphosphorylated c-KIT kinase (uKIT, Seq. ID no. 2) (P10721 other isoform, or with tags, fused parts or gaps): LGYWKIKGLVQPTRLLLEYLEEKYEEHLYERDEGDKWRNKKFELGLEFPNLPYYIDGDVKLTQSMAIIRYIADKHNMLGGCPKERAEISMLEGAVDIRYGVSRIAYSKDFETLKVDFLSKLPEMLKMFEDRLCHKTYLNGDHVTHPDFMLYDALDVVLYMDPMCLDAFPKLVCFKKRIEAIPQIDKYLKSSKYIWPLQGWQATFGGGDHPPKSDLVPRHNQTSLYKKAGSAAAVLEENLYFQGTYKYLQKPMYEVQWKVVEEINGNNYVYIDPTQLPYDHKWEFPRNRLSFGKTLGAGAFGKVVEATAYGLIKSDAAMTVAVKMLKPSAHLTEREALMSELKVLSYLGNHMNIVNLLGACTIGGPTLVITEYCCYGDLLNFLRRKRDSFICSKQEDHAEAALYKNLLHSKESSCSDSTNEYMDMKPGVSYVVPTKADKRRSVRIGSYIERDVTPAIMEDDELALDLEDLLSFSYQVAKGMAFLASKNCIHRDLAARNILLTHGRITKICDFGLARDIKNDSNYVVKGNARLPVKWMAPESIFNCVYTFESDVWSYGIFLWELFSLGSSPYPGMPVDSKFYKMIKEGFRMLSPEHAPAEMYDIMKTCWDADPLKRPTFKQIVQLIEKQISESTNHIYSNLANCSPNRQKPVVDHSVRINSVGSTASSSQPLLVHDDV

| SMILES | pIC50 (osteoclast precursors) | pIC50 (M-NFS-60 cells) | pIC50 [1] | pIC50 ([2]; read-out: uFMS) | pIC50 ([2]; uFMS) |
| --- | --- | --- | --- | --- | --- |
| Cc1ncc(-c2cc(Oc3ccc(NC(=O)N4CCN(C5CCCC5)C4=O)nc3C)ccn2)s1 [Example 75, 3-cyclopentyl-N-(6-methyl-5-((2-(2-methylthiazol-5-yl)pyridin-4-yl)oxy)pyridin-2-yl)-2-oxoimidazolidine-1-carboxamide] | 7.00 to 8.00 | 7.00 to 8.00 | 6.00 to 7.00 | > 8.00 |  |
| Cc1ncc(-c2cc(Oc3ccc(NC(=O)N4CCN(C)C4=O)nc3C)ccn2)s1 [Example 73, 3-methyl-N-(6-methyl-5-((2-(2-methylthiazol-5-yl)pyridin-4-yl)oxy)pyridin-2-yl)-2-oxoimidazolidine-1-carboxamide] | 6.00 to 7.00 | < 6.00 | < 6.00 | 6.00 to 7.00 |  |
| COC1(CCN2CCN(C(=O)Nc3cc(Cl)c(Oc4ccnc(-c5cnn(C)c5)c4)cc3F)C2=O)CC1 [Example 99, N-(5-chloro-2-fluoro-4-((2-(1-methyl-1H-pyrazol-4-yl)pyridin-4-yl)oxy)phenyl)-3-(2-(1-methoxycyclopropyl)ethyl)-2-oxoimidazolidine-1-carboxamide] | 7.00 to 8.00 | 7.00 to 8.00 |  | 7.00 to 8.00 |  |
| Cc1cn(-c2cc(Oc3ccc(NC(=O)N4CCN(CC(F)(F)F)C4=O)nc3)ccn2)cn1 [Example 76, N-(5-((2-(4-methyl-1H-imidazol-1-yl)pyridin-4-yl)oxy)pyridin-2-yl)-2-oxo-3-(2,2,2-trifluoroethyl)imidazolidine-1-carboxamide] | 6.00 to 7.00 | 6.00 to 7.00 | 6.00 to 7.00 | 7.00 to 8.00 |  |
| Cc1ncc(-c2cc(Oc3ccc(NC(=O)N4CCN(CC(F)(F)F)C4=O)nc3C)ccn2)s1 [Example 74, N-(6-methyl-5-((2-(2-methylthiazol-5-yl)pyridin-4-yl)oxy)pyridin-2-yl)-2-oxo-3-(2,2,2-trifluoroethyl)imidazolidine-1-carboxamide] | 7.00 to 8.00 | 6.00 to 7.00 | 6.00 to 7.00 | 7.00 to 8.00 |  |
| COCCN1CCN(C(=O)Nc2ccc(Oc3ccnc(-c4cnc(C)s4)c3)cn2)C1=O [Example 62, 3-(2-methoxyethyl)-N-(5-((2-(2-methylthiazol-5-yl)pyridin-4-yl)oxy)pyridin-2-yl)-2-oxoimidazolidine-1-carboxamide] | 6.00 to 7.00 | 6.00 to 7.00 | 6.00 to 7.00 | 6.00 to 7.00 |  |
| Cn1cc(-c2cc(Oc3ccc(NC(=O)N4CCN(C5CCOC(C)(C)C5)C4=O)nc3)ccn2)cn1 (stereo not drawn) [Example 13, 3-(2,2-dimethyltetrahydro-2H-pyran-4-yl)-N-(5-((2-(1-methyl-1H-pyrazol-4-yl)pyridin-4-yl)oxy)pyridin-2-yl)-2-oxoimidazolidine-1-carboxamide] | 7.00 to 8.00 | 6.00 to 7.00 |  | 7.00 to 8.00 |  |
| N#CCC(=O)Nc1cc(Oc2cc(F)c(NC(=O)N3CCN(C4CCOCC4)C3=O)cc2Cl)ccn1 [Example 114, N-(5-chloro-4-((2-(2-cyanoacetamido)pyridin-4-yl)oxy)-2-fluorophenyl)-2-oxo-3-(tetrahydro-2H-pyran-4-yl)imidazolidine-1-carboxamide] |  |  | < 6.00 | < 6.00 |  |
| Cn1cc(-c2cc(Oc3ccc(NC(=O)N4CCN(C5CCOCC5)C4=O)c(F)c3)ccn2)cn1 [Example 95, N-(2-fluoro-4-((2-(1-methyl-1H-pyrazol-4-yl)pyridin-4-yl)oxy)phenyl)-2-oxo-3-(tetrahydro-2H-pyran-4-yl)imidazolidine-1-carboxamide] | 7.00 to 8.00 | 7.00 to 8.00 |  | 7.00 to 8.00 |  |
| CC1CN(C(=O)Nc2ccc(Oc3ccnc(-c4cnn(C)c4)c3)cn2)C(=O)N1C1CCOCC1 (stereo not drawn) [Example 40, 4-methyl-N-(5-((2-(1-methyl-1H-pyrazol-4-yl)pyridin-4-yl)oxy)pyridin-2-yl)-2-oxo-3-(tetrahydro-2H-pyran-4-yl)imidazolidine-1-carboxamide] |  | 7.00 to 8.00 | 7.00 to 8.00 | > 8.00 |  |
| COCCN1CCN(C(=O)Nc2cc(F)c(Oc3ccnc(-c4cnn(C)c4)c3)cc2F)C1=O [Example 98, N-(2,5-difluoro-4-((2-(1-methyl-1H-pyrazol-4-yl)pyridin-4-yl)oxy)phenyl)-3-(2-methoxyethyl)-2-oxoimidazolidine-1-carboxamide] | 7.00 to 8.00 | 6.00 to 7.00 |  | 6.00 to 7.00 |  |
| Cc1c(Oc2ccnc(-c3cnn(C)c3)c2)ccc(NC(=O)N2CCN(C3CCOCC3)C2=O)c1F [Example 93, N-(2-fluoro-3-methyl-4-((2-(1-methyl-1H-pyrazol-4-yl)pyridin-4-yl)oxy)phenyl)-2-oxo-3-(tetrahydro-2H-pyran-4-yl)imidazolidine-1-carboxamide] | 7.00 to 8.00 | 6.00 to 7.00 |  | 7.00 to 8.00 |  |
| COCCN1CCN(C(=O)Nc2cc(Cl)c(Oc3ccnc(-c4cnn(C)c4)c3)cc2F)C1=O [Example 100, N-(5-chloro-2-fluoro-4-((2-(1-methyl-1H-pyrazol-4-yl)pyridin-4-yl)oxy)phenyl)-3-(2-methoxyethyl)-2-oxoimidazolidine-1-carboxamide] | 7.00 to 8.00 | 6.00 to 7.00 |  | 7.00 to 8.00 |  |
| COC1(CCN2CCN(C(=O)Nc3ccc(Oc4ccnc(-c5cnn(C)c5)c4)cn3)C2=O)CC1 [Example 17, 3-(2-(1-methoxycyclopropyl)ethyl)-N-(5-((2-(1-methyl-1H-pyrazol-4-yl)pyridin-4-yl)oxy)pyridin-2-yl)-2-oxoimidazolidine-1-carboxamide] | 7.00 to 8.00 | 7.00 to 8.00 |  |  | 7.00 to 8.00 |
| Cn1cc(-c2cc(Oc3ccc(NC(=O)N4CCN(C5CCOCC5)C4=O)cc3F)ccn2)cn1 [Example 102, N-(3-fluoro-4-((2-(1-methyl-1H-pyrazol-4-yl)pyridin-4-yl)oxy)phenyl)-2-oxo-3-(tetrahydro-2H-pyran-4-yl)imidazolidine-1-carboxamide] | 6.00 to 7.00 | < 6.00 |  | 7.00 to 8.00 |  |
| [2H]C([2H])([2H])n1cc(-c2cc(Oc3ccc(NC(=O)N4CCN(C5CCOCC5)C4=O)nc3)ccn2)cn1 [Example 6, 2-oxo-3-(tetrahydro-2H-pyran-4-yl)-N-(5-((2-(1-(trideuteromethyl)-1H-pyrazol-4-yl)pyridin-4-yl)oxy)pyridin-2-yl)imidazolidine-1-carboxamide] |  | 7.00 to 8.00 |  | 7.00 to 8.00 |  |
| Cn1cc(-c2cc(Oc3ccc(NC(=O)N4CCN(C5CCOCC5)C4=O)c(F)c3Cl)ccn2)cn1 [Example 113, N-(3-chloro-2-fluoro-4-((2-(1-methyl-1H-pyrazol-4-yl)pyridin-4-yl)oxy)phenyl)-2-oxo-3-(tetrahydro-2H-pyran-4-yl)imidazolidine-1-carboxamide] |  | 6.00 to 7.00 | 7.00 to 8.00 | > 8.00 |  |
